{
  "source": "patent US20170029355A1",
  "about": "“LABILE ESTERS OF AGROCHEMICALS FOR CONTROLLED RELEASE AND REDUCTION OF OFF-SITE MOVEMENT” (Monsanto Technology LLC, priority 2011, published 2017)",
  "key": {"velvetleaf": {"test_system": "velvetleaf", "test": "Greenhouse post-emergent control of velvetleaf by emulsifiable concentrates (Example 30)", "format": "in vivo", "description": "The efficacy of some photo-labile ester formulations from Example 28 for post-emergent control of velvetleaf was tested in the greenhouse. All formulations were tested at rates of 140, 280, 420, and 560 g dicamba equivalent per hectare rates and compared to the diglycolamine salt of dicamba (CLARITY®) at the same rates and untreated control plants. The velvetleaf plants were 10-15 cm in height at the time of spraying. Percent control was evaluated three weeks after treatment.\nThe methodology of Example 29 was used to evaluate the efficacy of several photo-labile esters of dicamba for post-emergent control of velvetleaf as emulsifiable concentrate formulations described in Example 28."}, "[1]": {"test": "Field dicamba volatility, airborne dicamba collected by air samplers (Example 34)", "format": "physicochemical", "settings": "field plot, 0.5 lb/acre dicamba a.e. with ROUNDUP WEATHERMAX, airborne dicamba collected over 24 hours, maximum 86° F."}, "[2]": {"test": "In vitro dicamba photo-release from photo-labile dicamba esters, acetonitrile/10% water solvent (Example 27)", "format": "physicochemical", "settings": "acetonitrile containing 10% water", "description": "This Example describes in vitro testing of dicamba photo-release by homogeneous solutions of photo-labile dicamba esters. The esters were dissolved in tetrahydrofuran (THF). Ester concentration was 0.1 mM. 25 ml of the solution was transferred to 22 mm tubes fabricated from graded seal quartz tubing with a 19/22 tapered seal at the top, which was closed with a tapered glass plug and secured with a plastic ring clamp. The solution was entirely below the quartz-to-glass transition, ensuring that the entire volume was exposed to the full spectrum.\nThe sealed tubes were placed in a Growth Chamber where they were exposed to simulated sunlight for 14 hours per day at 35° C. Dicamba concentrations in the solution were measured during the course of the photolysis.\nA sample of the initial solution was reserved in a glass vial away from the light source and analyzed at the conclusion of the study, providing a measurement of the amount of dicamba present without illumination of the photolysis solution (the “dark control”).\nThis Example is another photolysis of photo-labile dicamba esters, but using acetonitrile containing 10% water by weight as the solvent. The experimental protocol is otherwise the same as in Example 18."}},
  "data": [
    {"molecule": "COc1c(Cl)ccc(Cl)c1C(=O)Oc1cnc2ccccc2n1", "note": "[Ester 13a, 2-quinoxalinol ester of dicamba]", "values": [
      {"measurement": "% Control of velvetleaf, 140 g/ha", "setting": "velvetleaf; 140 g/ha", "value": 44, "unit": "%"},
      {"measurement": "% Control of velvetleaf, 280 g/ha", "setting": "velvetleaf; 280 g/ha", "value": 69, "unit": "%"},
      {"measurement": "% Control of velvetleaf, 420 g/ha", "setting": "velvetleaf; 420 g/ha", "value": 70, "unit": "%"},
      {"measurement": "% Control of velvetleaf, 560 g/ha", "setting": "velvetleaf; 560 g/ha", "value": 83, "unit": "%"}
    ]},
    {"molecule": "COc1c(Cl)ccc(Cl)c1C(=O)OCc1ccccc1[N+](=O)[O-]", "note": "[Ester 1a, 2-Nitrobenzyl Ester of Dicamba]", "values": [
      {"measurement": "average dicamba level from the five air samplers", "setting": "[1]", "value": 1.2, "unit": "ng/m^3"}
    ]},
    {"molecule": "COc1c(Cl)ccc(Cl)c1C(=O)OCCc1ccccc1[N+](=O)[O-]", "note": "[Ester 2, 2-Nitrophenethyl Ester of Dicamba]", "values": [
      {"measurement": "Dark Control % dicamba", "setting": "[2]; no illumination", "value": 0, "unit": "%"},
      {"measurement": "Conversion to dicamba, 1 day", "setting": "[2]; simulated sunlight, 1 day", "value": 33, "unit": "%"},
      {"measurement": "Conversion to dicamba, 2 days", "setting": "[2]; simulated sunlight, 2 days", "value": 56, "unit": "%"},
      {"measurement": "Conversion to dicamba, 3 days", "setting": "[2]; simulated sunlight, 3 days", "value": 75, "unit": "%"},
      {"measurement": "Conversion to dicamba, 5 days", "setting": "[2]; simulated sunlight, 5 days", "value": 93, "unit": "%"},
      {"measurement": "Conversion to dicamba, 7 days", "setting": "[2]; simulated sunlight, 7 days", "value": 104, "unit": "%"},
      {"measurement": "Conversion to dicamba, 11 days", "setting": "[2]; simulated sunlight, 11 days", "value": 107, "unit": "%"},
      {"measurement": "Conversion to dicamba, 13 days", "setting": "[2]; simulated sunlight, 13 days", "value": 108, "unit": "%"},
      {"measurement": "Conversion to dicamba, 15 days", "setting": "[2]; simulated sunlight, 15 days", "value": 96, "unit": "%"},
      {"measurement": "Conversion to dicamba, 19 days", "setting": "[2]; simulated sunlight, 19 days", "value": 106, "unit": "%"}
    ]}
  ]
}
